According to patent US12302841B2, “Soybean variety comprising high content of epicatechin” (AMOREPACIFIC CORPORATION, priority 2020, dated 2025):

Columns and labels:
collagenase (MMP-1) = experiment: Collagenase (MMP-1) expression inhibition test in human fibroblasts; assay type: cell-based; conditions: 10 μg/mL in serum-free DMEM, 24 hours, relative to untreated group
Description: In order to investigate the antiaging activity of the extract of the Aritaunkong bred in Example 1, the collagenase (MMP-1) expression-inhibiting effect of each of the soybean extracts prepared in Preparation Example was assessed. Specifically, after placing human fibroblasts (Cascade Biologics, Portland, OR, USA) on a 96-well microtiter plate containing DMEM (Dulbecco's modified Eagle's medium) supplemented with 2.5 wt % of fetal bovine serum at 5,000 cells/well, the cells were cultured until ˜90% confluency. Then, after culturing the cells in serum-free DMEM for 24 hours and treating with each of the three soybean extracts of Preparation Example or EGCG (Sigma-Aldrich) as a positive control group, dissolved in serum-free DMEM to 10 μg/mL, for 24 hours, the cell culture was collected. Subsequently, the degree of collagenase production in the collected cell culture was measured using a collagenase measurement kit (Amersham Pharmacia, USA). First, after placing the collected cell culture on a 96-well plate on which a primary collagenase antibody is coated uniformly, antigen-antibody reaction was conducted for 3 hours in a constant-temperature bath (36° C.). […] Collagenase expression inhibition (%)=(1−absorbance of substance-treated cell group/absorbance of control group)×100 [Equation 1]

[1] = Antioxidant activity test through DPPH reduction (DPPH radical-scavenging ability); assay type: biochemical; conditions: 100 μM DPPH in ethanol, 37° C. for 30 minutes, absorbance at 540 nm; sample concentration at which absorbance decreased by 50%
Description: In order to investigate the antioxidant activity of the extract of the Aritaunkong bred in Example 1, the DPPH (1,1-diphenyl-2-picrylhydrazyl) oxidation-inhibiting effect of each soybean extract prepared in Preparation Example was compared by monitoring the change in absorbance occurring as a result of reduction of DPPH. Specifically, after preparing 190 μL of a 100 μM (in ethanol) DPPH solution and the soybean extract of Preparation Example and the synthetic antioxidant Trolox (positive control group) to a concentration of 10,000 ppm, they were diluted to final concentrations of 500 ppm, 250 ppm, 125 ppm, 62.5 ppm, 31.25 ppm and 15.63 ppm. After preparing […] reaction solutions by mixing them, absorbance was measured at 540 nm after incubation at 37° C. for 30 minutes. The IC50 indicates the sample concentration when the absorbance was decreased by 50% due to the addition of the sample.

Collagenase expression inhibition (%) (collagenase (MMP-1))	DPPH radical-scavenging ability (IC50) [1] [ppm]	SMILES
60.8	–	O=C(O[C@@H]1Cc2c(O)cc(O)cc2O[C@@H]1c1cc(O)c(O)c(O)c1)c1cc(O)c(O)c(O)c1 [EGCG]
–	53.2	Cc1c(C)c2c(c(C)c1O)CCC(C)(C(=O)O)O2 (centres unmarked) [Trolox]
